Reference: patent US6818407B2, “Anti-endotoxic antimicrobial cationic peptides and methods of use therfor” (priority 1998, dated 2004)
Ends that are not written are not given here.

Tests used:
[1] = tested on: S. aureus K147; experiment: MIC, broth microdilution assay in polypropylene microtiter trays; assay type: cell-based; details: average of three separate experiments
Protocol: (§1) The biological activity of the peptides can be determined by standard methods known to those of skill in the art, such as Aminimal inhibitory concentration (MIC)≅ assay described in the present examples, whereby the lowest concentration at which no change in OD is observed for a given period of time is recorded as MIC. Alternatively, Afractional inhibitory concentration (FIC)≅ is also useful for determination of synergy between the peptides of the invention, or the peptides in combination with known antibiotics. FICs are performed by checkerboard titrations of peptides in one dimension of a microtiter plate, and of antibiotics in the other dimension, for example. The FIC is calculated by looking at the impact of one antibiotic on the MIC of the other and vice versa. […] Preferably, an FIC of less than 0.5 is obtained for synergism. As used herein, FIC can be determined as follows: [formula]
(§2) A method which employed polypropylene microtiter trays in a broth microdilution assay was developed.

[2] = tested on: P. aeruginosa; experiment: as above; assay type: cell-based; details: average of three separate experiments
Protocol: as §1, §2

[3] = tested on: S. aureus; experiment: as above; assay type: cell-based; details: average of three separate experiments
Protocol: as §1, §2

[4] = tested on: E. coli; experiment: as above; assay type: cell-based; details: average of three separate experiments
Protocol: as §1, §2

[5] = tested on: S. epidermis; experiment: as above; assay type: cell-based; details: average of three separate experiments
Protocol: as §1, §2

[6] = tested on: Pseudomonas aeruginosa strain M2; experiment: Protection of neutropenic CD-1 mice challenged with Pseudomonas aeruginosa; assay type: in vivo; parameters: Survival post bacterial challenge, surviving mice: reference not given here; details: for Survival (%) post bacterial challenge: PBS 8
Protocol: CD-1 mice were induced to be neutropenic via 3 intraperitoneal injections of cyclophosphamide ([…]) every another day. Immediately after the third administration of cyclophosphamide, the mice were challenged by intraperitoneal injection of Pseudomonas aeruginosa strain M2 (200-300 organisms/mouse). Cationic peptides (200 µg per mouse=8 mg/kg) in 100 µl buffered citrate were injected intraperitoneally at 30 min (single dose) or 30 min and 16 hrs (double dose) post bacterial challenge, respectively. The data were the average values of 2 individual experiments. PBS was used as a control. […] In general single dose protection studies gave better protection than double dose experiments.

[7] = tested on: Pseudomonas aeruginosa outer membrane barrier altered (Z61); assay type: cell-based; details: Mueller Hinton Broth
Protocol: as §1
(§3) These peptides varied in activity (Table 11), however, the C-terminally capped pleurocidin especially and its N-terminally capped lysine derivative had much better activities against a variety of bacteria including Vibrio anguillarum (Va), Aeromonas salmonicida (As), Staphylococcus epidermidis (C621), Salmonella typhimurium wild type (C587) and phoP phoQ mutant (C610), and Pseudomonas aeruginosa wild type (K799) and outer membrane barrier altered (Z61). The antimicrobial peptide CEME, a fusion peptide made from portions of an insect defensin ceropin A and the bee venom peptide melittin (Piers and Hancock, Mol. Microbiol., 12:951-8, 1994), as well as the known antibiotics polymyxin B and gentamicin were used as controls. Replacing the pleurocidin N-terminus with the dermaseptin N-terminus had no effect. Replacing pleurocidin N-terminus with the ceratoxin N-terminus reduced activity. […] Amidating the C-terminus improved antimicrobial activity. Replacing the pleurocidin C-terminus with the misgurin C-terminus had no effect.
(§4) Bacteria included Vibrio anguillarum (Va), Aeromonas salmonicida (As), Staphylococcus epidermidis (C621), Salmonella typhimurium wild type (C587) and phoP phoQ mutant (C6 10), and Pseudomonas aeruginosa wild type (K799) and outer membrane barrier altered (Z61).

[8] = tested on: Vibrio anguillarum (Va); assay type: cell-based; details: Mueller Hinton Broth
Protocol: as §1, §3, §4

[9] = tested on: Pseudomonas aeruginosa wild type (K799); assay type: cell-based; details: Mueller Hinton Broth
Protocol: as §1, §3, §4

[10] = tested on: Salmonella typhimurium wild type (C587); assay type: cell-based; details: Mueller Hinton Broth
Protocol: as §1, §3, §4

[11] = tested on: Staphylococcus epidermidis (C621); assay type: cell-based; details: Mueller Hinton Broth
Protocol: as §1, §3, §4

[12] = tested on: Aeromonas salmonicida (As); assay type: cell-based; details: Mueller Hinton Broth
Protocol: as §1, §3, §4

[13] = tested on: Salmonella typhimurium phoP phoQ mutant (C610); assay type: cell-based; details: Mueller Hinton Broth
Protocol: as §1, §3, §4

[14] = Lethal endotoxemia in galactosamine-sensitized mice; assay type: in vivo, CD-1 mice; details: peptide 200 μg intraperitoneal within 10 min of 10 μg LPS; 24 hours post injection; 5 mice per group; no peptide 100
Protocol: To confirm this in vivo, endotoxic shock was induced by intraperitoneal injection of 10 μg of E.coli 0111:B4 LPS in phosphate-buffered saline (PBS; pH 7.2) into galactosamine-sensitized 8- to 10- week old female CD-1 mice (5 per group). In experiments involving peptides, 200 μg in 100 μl of sterile water was injected at separate intraperitoneal sites within 10 min of LPS injection. Survival was monitored at 24 hours post injection.

## CC[C@H](C)[C@H](NC(=O)[C@H](CC(C)C)NC(=O)[C@H](C)NC(=O)[C@@H]1CCCN1C(=O)[C@H](CC(C)C)NC(=O)CNC(=O)[C@@H](NC(=O)[C@@H](NC(=O)[C@H](CC(C)C)NC(=O)[C@@H](NC(=O)[C@H](CCCCN)NC(=O)[C@H](CCCCN)NC(=O)[C@@H](NC(=O)[C@H](C)NC(=O)[C@@H](NC(=O)[C@@H](NC(=O)[C@H](CC(C)C)NC(=O)[C@H](CCCCN)NC(=O)[C@H](CCCCN)NC(=O)[C@@H](NC(=O)[C@H](Cc1ccccc1)NC(=O)[C@H](CO)NC(=O)[C@H](CCCCN)NC(=O)[C@H](Cc1c[nH]c2ccccc12)NC(=O)[C@@H](N)CCCCN)[C@@H](C)CC)[C@@H](C)O)[C@@H](C)O)C(C)C)C(C)C)[C@@H](C)O)[C@@H](C)O)C(=O)N[C@@H](CO)C(=O)O [CP-29, reference compound]
[1]
  MIC S. aureus K147: 11 µg/mL
[2]
  MIC P. aeruginosa: 6 µg/mL
[3]
  MIC S. aureus: 19 µg/mL
[4]
  MIC E. coli: 2 µg/mL
[5]
  MIC S. epidermis: 5 µg/mL
[6]; single dose (200 μg per mouse i.p. at 30 min), 16 hr
  Survival post bacterial challenge, surviving mice: 8
[6]; single dose, 24 hr
  Survival post bacterial challenge, surviving mice: 8
[6]; single dose, 41 hr
  Survival post bacterial challenge, surviving mice: 7
[6]; single dose, 48 hr
  Survival post bacterial challenge, surviving mice: 6
[6]; single dose, 64 hr
  Survival post bacterial challenge, surviving mice: 4
  Survival (%) post bacterial challenge: 50%
[6]; single dose, 72 hr
  Survival post bacterial challenge, surviving mice: 4
  Survival (%) post bacterial challenge: 50%
[6]; single dose, 96 hr
  Survival post bacterial challenge, surviving mice: 3
  Survival (%) post bacterial challenge: 37%

## KGWGSFFKKAAHVGKHVGKAALTHYL [Peptide P-1]
[7]
  MIC Z61: 8 µg/mL
[8]
  MIC Va: 16 µg/mL
[9]
  MIC K799: 32 µg/mL
[10]
  MIC C587: 16 µg/mL
[11]
  MIC C621: 64 µg/mL
[12]
  MIC As: 2 µg/mL
[13]
  MIC C610: <0.5 µg/mL

## SIGSAFKKAAHVGKHVGKAALGAAARRRK [CER-M]
[7]
  MIC Z61: 64 µg/mL
[8]
  MIC Va: >64 µg/mL
[9]
  MIC K799: >64 µg/mL
[10]
  MIC C587: >64 µg/mL
[11]
  MIC C621: >64 µg/mL
[12]
  MIC As: 32 µg/mL
[13]
  MIC C610: 8 µg/mL

## ALWKTMLKKAAHVGKHVGKAALTHYL-NH2 [P-DER]
[7]
  MIC Z61: 8 µg/mL
[8]
  MIC Va: 4 µg/mL
[9]
  MIC K799: 16 µg/mL
[10]
  MIC C587: 4 µg/mL
[11]
  MIC C621: 4 µg/mL
[12]
  MIC As: 1 µg/mL
[13]
  MIC C610: 0.5 µg/mL

## CC[C@H](C)[C@H](NC(=O)CNC(=O)[C@@H](NC(=O)[C@H](CCCCN)NC(=O)[C@H](CCCCN)NC(=O)[C@H](Cc1ccccc1)NC(=O)[C@H](CC(C)C)NC(=O)[C@H](CCCCN)NC(=O)[C@H](Cc1c[nH]c2ccccc12)NC(=O)[C@@H](N)CCCCN)[C@@H](C)CC)C(=O)NCC(=O)N[C@@H](C)C(=O)N[C@H](C(=O)N[C@@H](CC(C)C)C(=O)N[C@@H](CCCCN)C(=O)N[C@H](C(=O)N[C@@H](CC(C)C)C(=O)N[C@H](C(=O)N[C@H](C(=O)NCC(=O)N[C@@H](CC(C)C)C(=O)N1CCC[C@H]1C(=O)N[C@@H](C)C(=O)N[C@@H](CC(C)C)C(=O)N[C@@H](CCCCN)C(=O)N[C@@H](CC(C)C)C(=O)N[C@H](C(=O)N[C@@H](CCCCN)C(=O)O)[C@@H](C)O)[C@@H](C)O)[C@@H](C)O)C(C)C)C(C)C [CEMA, reference compound]
[14]
  Mortality (%): 0%

## ALWKTMLKKAAHVGKHVGKAALGAAARRRK [DER-M]
[7]
  MIC Z61: 8 µg/mL
[8]
  MIC Va: >64 µg/mL
[9]
  MIC K799: 64 µg/mL
[10]
  MIC C587: 32 µg/mL
[11]
  MIC C621: 32 µg/mL
[12]
  MIC As: 2 µg/mL
[13]
  MIC C610: 0.5 µg/mL
